Reference: the supplement of paper PMC5908809

Assays:
[1] = system: NKL (IL-2 2.5 ng/mL); test: percent inhibition of viability; higher = more inhibition; conditions: 72 h
[2] = system: IMC-1 (IL-2 20 ng/mL); test: as above; conditions: 72 h
[3] = system: normal primary NK cells, pool 1 (3 donors) (IL-2 2.5 ng/mL); test: as above; conditions: 72 h
[4] = system: normal primary NK cells, pool 3 (3 donors) (IL-2 2.5 ng/mL); test: as above; conditions: 72 h
[5] = system: normal primary NK cells, pool 2 (3 donors) (IL-2 2.5 ng/mL); test: as above; conditions: 72 h
[6] = system: KAI3 (IL-2 2.5 ng/mL); test: as above; conditions: 72 h
[7] = system: NK-YS (IL-2 2.5 ng/mL); test: as above; conditions: 72 h
[8] = system: normal primary NK cells, pool 1 (3 donors), resting (IL-2 0 ng/mL); test: as above; conditions: 72 h
[9] = system: KHYG-1 (IL-2 2.5 ng/mL); test: as above; conditions: 72 h
[10] = system: NK-92 (IL-2 2.5 ng/mL); test: as above; conditions: 72 h
[11] = system: YT (IL-2 2.5 ng/mL); test: as above; conditions: 72 h
[12] = system: SNK-6 (IL-2 2.5 ng/mL); test: as above; conditions: 72 h
[13] = system: DERL-7 (IL-2 2.5 ng/mL); test: as above; conditions: 72 h
[14] = system: normal NK cells expanded with K562-aAPC; test: as above; conditions: 72 h, IL-2 2.5 ng/mL
Protocol: (§1)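 Drug sensitivity and resistance testing on K562-aAPC-expanded normal NK cells: 5 concentrations (10-fold steps over a 10,000-fold range), 72 h at 37 °C, viability by CellTiter-Glo normalised to DMSO and benzethonium chloride controls; DSS from the fitted curve.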

[15] = system: normal NK cells expanded with K562-aAPC; test: drug sensitivity score (DSS) (DSS units); higher = more sensitive; extreme values may be limits of the assay; conditions: 72 h; IL-2 2.5 ng/mL
Protocol: as §1

[16] = system: NKL (IL-2 2.5 ng/mL); test: as above; conditions: 72 h
[17] = system: IMC-1 (IL-2 20 ng/mL); test: as above; conditions: 72 h
[18] = system: normal primary NK cells, pool 1 (3 donors) (IL-2 2.5 ng/mL); test: as above; conditions: 72 h
[19] = system: normal primary NK cells, pool 3 (3 donors) (IL-2 2.5 ng/mL); test: as above; conditions: 72 h
[20] = system: normal primary NK cells, pool 2 (3 donors) (IL-2 2.5 ng/mL); test: as above; conditions: 72 h
[21] = system: KAI3 (IL-2 2.5 ng/mL); test: as above; conditions: 72 h
[22] = system: NK-YS (IL-2 2.5 ng/mL); test: as above; conditions: 72 h
[23] = system: normal primary NK cells, pool 1 (3 donors), resting (IL-2 0 ng/mL); test: as above; conditions: 72 h
[24] = system: KHYG-1 (IL-2 2.5 ng/mL); test: as above; conditions: 72 h
[25] = system: NK-92 (IL-2 2.5 ng/mL); test: as above; conditions: 72 h
[26] = system: YT (IL-2 2.5 ng/mL); test: as above; conditions: 72 h
[27] = system: SNK-6 (IL-2 2.5 ng/mL); test: as above; conditions: 72 h
[28] = system: DERL-7 (IL-2 2.5 ng/mL); test: as above; conditions: 72 h

O=C(Nc1cccc(Nc2ncc(Br)c(NCCc3cnc[nH]3)n2)c1)N1CCCC1 [BX-912] (max concentration tested 10000 nM)
percent inhibition of viability [%]
Conditions	1 nM	10 nM	100 nM	1000 nM	10000 nM
[1]	-14.9	-11.4	13.4	37.6	82.2
[2]	-2.34	-6.68	1.1	67.4	100
[3]	-2.38	3.58	-5.48	24.1	67.8
[4]	-2.12	3.72	-4.74	17.4	59.6
[5]	-15	-8.59	-3.23	28.3	70.2
[6]	4.7	2.59	15.4	62.1	91.9
[7]	-1.46	-2.48	3.48	12.5	71
[8]	-5.56	-0.72	-0.67	-4.14	48.2
[9]	2.7	1.66	7.53	73.7	99.5
[10]	-9.43	-1.33	-2.11	29.9	73.8
[11]	5.65	4	10.3	27.9	94
[12]	-3.93	-10.2	-7.12	74.4	84.7
[13]	2.87	-0.14	-7.54	46.5	100
[14]	6.59	2.98	3.43	27.4	91.5

Conditions	drug sensitivity score
[15]	9.08
[16]	9.05
[17]	13.3
[18]	7.12
[19]	5.85
[20]	7.7
[21]	13.7
[22]	5.99
[23]	2.21
[24]	14.9
[25]	8.1
[26]	8.82
[27]	13.4
[28]	11.4

O=C(/C=C/c1cccc(S(=O)(=O)Nc2ccccc2)c1)NO [Belinostat] (max concentration tested 10000 nM)
percent inhibition of viability [%]
Conditions	1 nM	10 nM	100 nM	1000 nM	10000 nM
[1]	5.5	10.4	37.5	87.9	108
[2]	2.36	-0.13	20.2	99.6	101
[3]	3.19	9.82	43.7	96.4	98.7
[4]	-2.35	-1.35	15.5	96.3	98.3
[5]	-8.09	0.56	31	93.9	95.6
[6]	7.26	14.3	51.9	94.6	109
[7]	-1.97	-1.76	21	97.5	109
[8]	-4.94	0.46	53.2	87.1	91.7
[9]	-0.75	-0.46	35	108	110
[10]	5.07	14.1	52.2	107	106
[11]	4.17	3.96	11.8	105	109
[12]	-0.17	-5.01	28.3	97.2	101
[13]	-0.73	5.09	23.1	100	101
[14]	0.58	6.04	16.8	99.6	101

Conditions	drug sensitivity score
[15]	20.8
[16]	20.9
[17]	21.2
[18]	22.5
[19]	20.1
[20]	21.2
[21]	24.1
[22]	20.9
[23]	22.9
[24]	22.9
[25]	24.5
[26]	20.1
[27]	21.7
[28]	21.6
